Patent US11357873B2, “Chiral cyclen compounds and their uses” (THE HONG KONG POLYTECHNIC UNIVERSITY, priority 2016, dated 2022)
Marks after values point to notes of the source that are not given here.

What was measured:
[1] = Absorption and photoluminescence (quantum yield, lifetime, q); assay type: physicochemical; parameters: λabs(max): unit not given here; details: for R, I(5D0 → 7F2)/I(5D0 → 7F1): asymmetry ratio, 10 in MeOH; for R, I(5D0 → 7F2)/I(5D0 → 7F1) / λabs(max): room temperature, 11 in DMSO; for ΦDMSO (%): luminescence quantum yield in DMSO; for λabs(max): 10 measured in MeOH
Description: (§1) Absorption spectra of complexes were measured with HP UV-8453 spectrophotometer. Steady-state room temperature photoluminescence measurements were performed with an Edinburgh Instrument FLSP920 spectrophotometer equipped with a Xe900 continuous xenon lamp, μF920 microsecond flash lamp and a single photon counting photomultiplier tube. Spectra were corrected with the bundled F900 software. Solution-state measurements were conducted using quartz curettes of 10 mm path length. CPL measurements were conducted on a custom built spectrometer^63 (in Durham University) consisting of a laser driven light source (Energetiq EQ-99 LDLS, spectral range 170 to 2100 nm) coupled to an Acton SP2150 monochromator (600 g/nm, 300 nm Blaze) that allows excitation wavelengths to be selected with a 6 nm FWHM band-pass. The collection of the emitted light was facilitated (90° angle set up, 1 cm path length quartz curette) by a Lock-In Amplifier (Hinds Instruments Signaloc 2100) and Photoelastic Modulator (Hinds Instruments PEM-90). The differentiated light was focused onto an Acton SP2150 monochromator (1200 g/nm, 500 nm Blaze) equipped with a high sensitivity cooled Photo Multiplier Tube (H10723-20 Extended red-multialkali PMT based photosensor (5V)). Spectra were recorded using a 5 spectral average sequence in the range of 570-720 nm with 0.5 nm spectral intervals and 500 μs integration time. The recorded CPL spectrum underwent a 25% Fourier transformation smoothening protocol using Origin 8.0 Software (Origin Labs) to enhance appearance (all calculations were carried out using raw spectral data).
The shift in absorption is caused by electronic communication between the electropositive lanthanide center and the chromophore. […] These are not observed for 11, however, as we believe the steric effect of the planar phenyl ring of the benzyl group could not be alleviated by appropriate rotation, whereas that of the isobutyl group could.
The luminescence quantum yields of the complexes are decent in water and HEPES solution, although they are much higher in DMSO, due to the nonradiative quenching by O—H oscillators of water molecules in the second coordination sphere (Table 6). The intrinsic quantum yields^61—a calculated value evaluating the quantum yield of Eu(III) via direct metal excitation—of the complexes are calculated, and, as expected, the values are very similar, except for 10. The higher value corroborates with the shift in absorption maximum, for which we believe the reason is due to a shorter europium—chromophore distance and better interaction. On the other hand, the sensitization efficiencies of the complexes vary. […] The relatively remarkable ηsens of 13 is attributed to its structural rigidity, as both the tetraaza backbone and the acetate arms are modified with a chrial substituent, i.e., double chirality. The double chirality is also attributed for the increase in luminescence quantum yield compared to that of 12a/12b.

[2] = Circularly polarized luminescence (CPL), dissymmetry factor glum; assay type: physicochemical; details: DMSO; wavelength in parentheses in the cell
Description: as §1, with “Steady-state” for “Absorption spectra of complexes were measured with HP UV-8453 spectrophotometer. Steady-state”, “time.” for “time. The recorded CPL spectrum underwent a 25% Fourier transformation smoothening protocol using Origin 8.0 Software (Origin Labs) to enhance appearance (all calculations were carried out using raw spectral data).”

[3] = Water solubility of complexes; assay type: physicochemical
[4] = Rate of complexation of ligands with metal salts under mild (radiolabeling) conditions; assay type: physicochemical; details: pD 6.0-7.0, 50° C., 1H NMR titration
[5] = Relaxivity (r1, r2) measurement of Gd(III) complexes in water, BSA and human plasma; assay type: physicochemical; parameters: r1 Human Plasma (1.5 T): unit not given beside the values; details: 37° C.
Description: This is very important because the huge difference in the inner-sphere coordinated water exchange rate between the two isomers is a key factor for applications, for example, as MRI contrast agents. To show their potential value, the two diastereomers of [GdL2]^− ([GdL2A]^− and [GdL2B]^−) were separated and their relaxivities were measured. The relaxivities of [GdL1]^−, [GdL2]^−, [GdL2A]^−, [GdL2B]^− and [GdDOTA]^− in water at different magnetic strengths (1.5 T and 11.7 T) were compared, with or without the presence of BSA and human plasma (1.5 T) (Table 1). It is clearly seen that the complexes of [GdL1]^−, [GdL2A]^− and [GdL2B]^− have relaxivity properties similar to that of the [GdDOTA]^− complex.

[6] = biological target: BSA (Bos taurus, UniProt P02769); experiment: Protein binding with BSA determined by ICP-MS; assay type: in vitro ADME
[7] = test system: human plasma; experiment: Protein binding with human plasma determined by ICP-MS; assay type: in vitro ADME
[8] = Kinetic inertness: competitive titration with DTPA, UPLC-HRMS; assay type: physicochemical; details: 1000 eq. of DTPA, pH 5.0, 0.1 M ammonium acetate, shaken 7 days; for decomplexation in presence of competitive ligand DTPA: room temperature
Description: Experimental procedure: Stock solution of [GdL1]^− and [GdL2]^− were prepared in 0.1 M ammonium acetate, 0˜1000 equivalents of DTPA were added into the solutions, the final concentrations of the gadolinium complexes were 14.8 mM for [GdL1]^− and 21.6 mM for [GdL2]^− (6 mL). The mixtures were shaken at room temperature, and samples of 1 ml of solutions were taken out for UPLC-HRMS analysis on day 3 and day 7.
Results: Competitive bath titrations were performed with the Gd analogues, [GdL1]^− and [GdL2]^−, in the presence of 0-1000 equivalents of competitive ligand DTPA (pentetic acid or diethylenetriaminepentaacetic acid) in 0.1 M ammonium acetate solution. After being shaken for 7 days (1000 eq. of DTPA, pH 5.0), the mixtures were analyzed by UPLC-HRMS. […] This finding is of significant importance for future use of the complexes in biomedical applications.

[9] = ICP-MS, summary of Tables 2 and 3
[10] = Table 2, sample A, conc. before 0.32286251 mM
[11] = Table 2, sample B, conc. before 0.15917209 mM
[12] = Table 2, sample C, conc. before 0.02070731 mM
[13] = Table 3, sample A, conc. before 0.3714242 mM
[14] = Table 3, sample B, conc. before 0.1551093 mM
[15] = Table 3, sample C, conc. before 0.0251512 mM
[16] = Table 2, sample A, conc. before 0.3167862 mM
[17] = Table 2, sample B, conc. before 0.162104 mM
[18] = Table 2, sample C, conc. before 0.021152 mM
[19] = Table 3, sample A, conc. before 0.3699171 mM
[20] = Table 3, sample B, conc. before 0.134016 mM
[21] = Table 3, sample C, conc. before 0.0189002 mM

Chain of BSA (P02769 25-607): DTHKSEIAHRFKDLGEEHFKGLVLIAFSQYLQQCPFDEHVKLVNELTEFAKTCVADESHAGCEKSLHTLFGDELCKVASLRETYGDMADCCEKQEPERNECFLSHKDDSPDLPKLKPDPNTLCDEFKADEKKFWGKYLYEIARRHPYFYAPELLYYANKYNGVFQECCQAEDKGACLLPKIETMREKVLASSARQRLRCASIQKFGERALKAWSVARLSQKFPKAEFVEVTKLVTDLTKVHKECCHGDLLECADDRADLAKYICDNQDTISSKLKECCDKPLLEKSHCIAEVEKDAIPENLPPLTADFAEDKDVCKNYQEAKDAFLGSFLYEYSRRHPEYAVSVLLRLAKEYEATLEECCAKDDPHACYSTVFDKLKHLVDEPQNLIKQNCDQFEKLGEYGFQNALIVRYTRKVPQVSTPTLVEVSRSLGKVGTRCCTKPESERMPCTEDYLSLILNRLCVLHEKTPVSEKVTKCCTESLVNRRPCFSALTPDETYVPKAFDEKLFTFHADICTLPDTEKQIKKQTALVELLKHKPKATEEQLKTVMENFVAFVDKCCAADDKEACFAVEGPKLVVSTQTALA

COc1cc(OC)c(C#Cc2cc(CN3C[C@H](CC(C)C)N(CC(=O)[O-])C[C@H](CC(C)C)N(CC(=O)[O-])C[C@H](CC(C)C)N(CC(=O)[O-])C[C@@H]3CC(C)C)nc(P(C)(=O)[O-])c2)c(OC)c1.[Eu+3] [Complex 10]
R, I(5D0 → 7F2)/I(5D0 → 7F1) [1]: 3.01 | q (calculated from ref 60) ([1]; from lifetimes in MeOH and MeOD): 0.05^g | ΦEuEu (%) ([1]; intrinsic quantum yield, calculated value): 36.9% | τD2O/MeOD ([1]; luminescence lifetime, 5D0 → 7F2 transition, D2O (MeOD for 10)): 1.74 ms | τH2O/MeOH ([1]; luminescence lifetime, 5D0 → 7F2 transition, H2O (MeOH for 10)): 1.39 ms | ΦDMSO (%) [1]: 45.3% | ΦH2O/MeOH (%) ([1]; luminescence quantum yield relative to quinine sulfate in 0.1M H2SO4, H2O (MeOH for 10, insoluble in H2O)): 11.1% | λabs(max) [1]: 364 | ηsens (%) ([1]; sensitization efficiency, calculated according to ref 61): 30.1% | glum ΔJ = 1 (λ) DMSO [2]: −0.11 (591) | glum ΔJ = 3 (λ) DMSO [2]: −0.12 (657) | water solubility [3]: poor water solubility

COc1cc(OC)c(C#Cc2cc(CN3CC(Cc4ccccc4)N(CC(=O)[O-])CC(Cc4ccccc4)N(CC(=O)[O-])CC(Cc4ccccc4)N(CC(=O)[O-])CC3Cc3ccccc3)nc(P(C)(=O)[O-])c2)c(OC)c1.[Eu+3] (centres unmarked) [Complex 11]
R, I(5D0 → 7F2)/I(5D0 → 7F1) [1]: 2.69 | ΦDMSO (%) [1]: 40.4% | λabs(max) [1]: 354 | glum ΔJ = 3 (λ) DMSO [2]: +0.25 (657) | water solubility [3]: poor water solubility

CC[C@H]1CN(CC(=O)O)[C@@H](CC)CN(CC(=O)O)[C@@H](CC)CN(CC(=O)O)[C@@H](CC)CN1CC(=O)O [Complex L2, 2,2′,2″,2′″-((2S,5S,8S,11S)-2,5,8,11-tetraethyl-1,4,7,10-tetraazacyclododecane-1,4,7,10-tetrayl)tetraacetic acid]
time to complete complexation with Eu(OTf)3 [4]: ≤ 5 min

C[C@H]1CN(CC(=O)[O-])[C@@H](C)CN(CC(=O)[O-])[C@@H](C)CN(CC(=O)[O-])[C@@H](C)CN1CC(=O)[O-].[Gd+3] [[GdL1]^−]
r1 4.5 w/v BSA (1.5 T) [5]: 4.1 | r1 Human Plasma (1.5 T) [5]: 3.9 | r1 Water (1.5 T) [5]: 3.4 | r1 Water (11.7 T) [5]: 2.8 | complex binding with BSA [6, 9]: less than 5% | % bound In BSA [6, 10]: (1.3% bound) | Conc. (mM) In BSA after [6, 10]: 0.3185 mM | % bound In BSA [6, 11]: (1.5% bound) | Conc. (mM) In BSA after [6, 11]: 0.1568 mM | % bound In BSA [6, 12]: (3.7% bound) | Conc. (mM) In BSA after [6, 12]: 0.02 mM | % bound In BSA [6, 13]: (1.9% bound) | Conc. (mM) In BSA after [6, 13]: 0.3641 mM | % bound In BSA [6, 14]: (3.4% bound) | Conc. (mM) In BSA after [6, 14]: 0.1498 mM | % bound In BSA [6, 15]: (2.2% bound) | Conc. (mM) In BSA after [6, 15]: 0.02458 mM | complex binding with human plasma [7, 9]: less than 5% | % bound In Plasma [7, 16]: (2.2% bound) | Conc. (mM) In Plasma after [7, 16]: 0.3097 mM | % bound In Plasma [7, 17]: (1.8% bound) | Conc. (mM) In Plasma after [7, 17]: 0.1592 mM | % bound In Plasma [7, 18]: (4.7% bound) | Conc. (mM) In Plasma after [7, 18]: 0.02015 mM | % bound In Plasma [7, 19]: (2.6% bound) | Conc. (mM) In Plasma after [7, 19]: 0.3602 mM | % bound In Plasma [7, 20]: (2.2% bound) | Conc. (mM) In Plasma after [7, 20]: 0.1311 mM | % bound In Plasma [7, 21]: (3.9% bound) | Conc. (mM) In Plasma after [7, 21]: 0.01816 mM | ratio of TSA/SA after DTPA challenge [8]: remained the same | decomplexation in presence of competitive ligand DTPA [8]: No trace of any decomplexation

CC[C@H]1CN(CC(=O)[O-])[C@@H](CC)CN(CC(=O)[O-])[C@@H](CC)CN(CC(=O)[O-])[C@@H](CC)CN1CC(=O)[O-].[Gd+3] [[GdL2]^−]
r1 4.5 w/v BSA (1.5 T) [5]: 3.6 | r1 Human Plasma (1.5 T) [5]: 2.9 | r1 Water (1.5 T) [5]: 2.6 | r1 Water (11.7 T) [5]: 3.1 | ratio of TSA/SA after DTPA challenge [8]: remained the same | decomplexation in presence of competitive ligand DTPA [8]: No trace of any decomplexation
